# Measured values reported in PMC9750872, “Ras-mutant cancers are sensitive to small molecule inhibition of V-type ATPases in mice” (Nature biotechnology, 2022).
# “Also recorded” adds a separate entry of the source. Read-outs that look alike come from different tables or passages of the source.
# Assays:
# [1] = tested on: V-ATPase-dependent proton transport in HEK293T cells; experiment: Proton pumping assay, FITC-Dextran-loaded lysosomes; assay type: cell-based, human; settings: 1 h treatment
# From the text: Figure 4. […] (A) Model of the reversible assembly of V-ATPase. Cytosolic V1 subunits are depicted in blue and membrane Vo subunits in purple. Upon V-ATPase assembly, ATP is hydrolyzed to ADP accompanied by proton (H^+) pumping and luminal acidification (decrease in pH) (Created with BioRender). […] The amount of subunit B2 present in the membrane fraction indicates the amount of assembled V-ATPase. A representative Western blot is presented. […] Cells were mechanically lysed, and a fraction containing FITC-Dextran-loaded lysosomes was isolated by sedimentation centrifugation. Fluorescence was measured over time to assess pH-dependent quenching following addition of 1 mM magnesium-ATP (predetermined). […] Representative of 5 individual experiments with n = 3 for each is presented (mean ± SD) (D) Mammalian V-ATPase activity measured in the absence and presence of 1 μM 249C and 1 μM BafA1. Data shown are mean ± SD; n = 3. […]
# 4 × 10^6 HEK 293T cells were plated in 10-cm plates. […] Sample fluorescence was excited at 490 nm, and emission fluorescence at 520 nm was measured continuously in BioTek plate reader (Synergy) using Gen5 software (version 3.05). After initial fluorescence stabilization, 1 mM ATP and 2 mM MgCl2 were added to initiate ATPase activity and proton pumping into the lysosomes, which causes quenching of FITC in the lysosomal lumen. […]
# [2] = tested on: panel of 53 cancer cell lines; experiment: 249C sensitivity in a panel of 53 cancer cell lines; assay type: cell-based; settings: Homo sapiens, read-out: median IC50
# Experimental: Figure 1: Optimization of Potency and Drug Properties of Small Molecule Inhibitors of Ras- and Raf-mutant Cells using Viability Screens. (A) Cell viability screen of ~300 small molecules in A549 (KRASG12S), LOX IMVI (BRAFV600E), and MelJuso (HRASG13D and NRASQ61L). Cells were treated with vehicle DMSO or increasing concentrations of small molecules in triplicate for 72 h and ATP content/viability was measured using CellTiter-Glo Luminescent Cell Viability Assay. The results shown for all cell viability figures are representative of at least two independent experiments. […] (F) Quantitative whole proteome analysis of the effects of small molecule treatment by mass spectrometry. A549 cells were treated with DMSO or 68 (30 μM), 226C (1μM) or 249C (1μM) for 48 h prior to analysis of proteomes with TMT labeling followed by quantification relative to the DMSO control. […]
# The Cancer Cell Line Encyclopedia (CCLE, http://www.broadinstitute.org/ccle) was used to download somatic mutation data for over 1000 cancer cell lines [(CCLE_DepMap_18q3_maf_20180718.txt) from CCLE at https://depmap.org/portal/download/ (2018)][61]. We filtered the data to retain only mutations (single nucleotide variants, SNVs, and insertion deletions, indels) detected in 53 cell lines that were included in our MTS assays (Fig. 1). […] Genes with multiple mutations in the same cell line were only counted once. […]
# human primary cells = experiment: BioMAP Safety and Toxicology screening profile; assay type: cell-based; settings: over 100 biomarker readouts
# Experimental: The BioMAP Toxicity Screening Profile was performed as described previously.
# [3] = Maximum tolerated dose study; assay type: in vivo
# From the text: MTD studies were outsourced and performed at a local CRO based on their established protocols.
# MEFs KRAS G12D = experiment: Cell proliferation of Ras-less MEFs expressing human KRAS/BRAF; settings: Mus musculus
# Experimental: Logarithmically growing cells were plated in antibiotic-free medium supplemented with 2% fetal bovine serum at a density of 5,000 cells per well. The next day, cells were treated in triplicates with increasing doses of in-house small molecule inhibitor drugs and a DMSO vehicle control for 3 days and subsequently assessed for cell viability by measurement of ATP with CellTiter-Glo Luminescent Cell Viability Assay (Promega). Signal intensity was read on a Glomax™ 96 Microplate Luminometer (Promega) with GLOMAX software (version 1.9.3) and percent cell survival was calculated based on the reading of vehicle control cells set as 100% using Excel (2012) and GraphPad Prism (version 6)Each compound was tested a minimum of 2 times with n = 3. All cell proliferation assays (cancer cell lines or MEFs) were done in a similar way.
smiles,measurement,setting,value
CN1CCOC(CNC(=O)C2(C)C(c3ccc(Cl)o3)C(c3ccc(F)cc3F)=NN2c2ccc(F)cc2F)C1 (stereo not shown) [Compound 249C],V-ATPase-dependent proton transport (ATP-dependent fluorescence quenching),[1],inhibited V-ATPase-dependent proton transport; also recorded: ATP-dependent fluorescence quenching was not observed
same,IC50,[2]; KRAS/HRAS/NRAS/BRAF mutant cells,65 nM
same,IC50,[2]; cells with no mutations in these genes,365 nM
same,toxicity categories / adverse events in BioMAP safety profiling,human primary cells,no adverse events
same,body weight,"[3]; 150 mg/kg, after 21 days in vivo",no significant difference in body weight
same,MTD at 21 days,"[3]; mouse, in vivo, mice",150 mg/kg
same,IC50,MEFs KRAS G12D,300 nM
